Data as given in patent publication US5811512A, “Non-peptide peptidomimetics and related cyclic hexapeptides” (The Trustees of the University of Pennsylvania, priority 1996, dated 1998).
Where two headings read alike, the source gives them in different places.

Assays:
[1] = system: somatostatin receptors of AtT-20 cells; settings: read-out: IC50 for binding somatostatin receptors of AtT-20 cells, cited from earlier work
SRIF receptor = SRIF receptor affinity: displacement of 125I-CGP-23996 from AtT-20 cells; type: binding; settings: displacement of 125I-CGP-23996, AtT-20 cells
Procedure: The affinity of a variety of compounds for the SRIF receptor was determined by studying the displacement of ^125 I-CGP-23996 from AtT-20 cells using the method generally in accordance with Raynor and Reisine, Journal of Pharmacology and Experimental Therapeutics, 1989, 251;2, 510.

[2] = target: T1, human neurokinin-1 receptor (NK1R) (Homo sapiens, UniProt P25103); test: Substance P receptor binding: 125I-substance P displacement from human NK1R expressed in COS cells; settings: 125I-SP, COS cells expressing human NK1R; read-out: IC50 (concentration required to inhibit the binding of substance P to the human neurokinin-1 receptor by 50%)
T1 construct: the cDNA for the human NK1R was cloned into the expression vector pCDM9; expressed in transfected cells; host or cells: COS cells (transient, electroporation, vector pCDM9)
Procedure: The affinity of a variety of compounds for the substance P receptor was determined employing the following procedure.
A. Receptor Expression in COS
To express the cloned human neurokinin-1 receptor (NK1R) transiently in COS, the cDNA for the human NK1R was cloned into the expression vector pCDM9 which was derived from pCDM8 (Invitrogen) by inserting the ampicillin resistance gene (nucleotide 1973 to 2964 from Bluescript SK+) into the Sac II site. Transfection of 20 μg of the plasmid DNA into 10 million COS cells was achieved by electroporation in 800 μl of the transfection buffer ([…], 1.2 mM MgCl2, 2.4 mM K2 HPO4, 0.6 mM KH2 PO4, 10 nM glucose, 10 mM HEPES pH 7.4) at 260V and 950 μF using the IBI Genezapper (IBI, New Haven, Conn.). The cells were incubated in 10% fetal calf serum, 2 mM glutamine, 100 U/ml penicillin-streptomycin, and 90% DMEM media (Gibco, Grand Island, N.Y.) in 5% CO2 at 37° C. for three days before the binding assay.
B. Assay Protocol using COS
The binding assay of human NK1R expressed in COS cells is based on the use of ^125 I-substance P (^125 I-SP, from DuPont, Boston, Mass.) as a radioactively labeled ligand which competes with unlabeled substance P or any other ligand for binding to the human NK1R. Monolayer cell cultures of COS were dissociated by the non-enzymatic solution (Specialty Media, Lavallette, N.J.) and resuspended in appropriate volume of the bind buffer (50 mM Tris pH 7.5, 5 mM MnCl2, 150 mM NaCl, 0.04 mg/ml bacitracin, 0.004 mg/ml leupeptin, 0.2 mg/ml BSA, 0.01 mM phosphoramidon) such that 200 μl of the cell suspension would give rise to about 10,000 cpm of specific ^125 I-SP binding (approximately 50,000 to 200,000 cells). In the binding assay, 200 μl of cells were added to a tube containing 20 μl of 1.5 to 2.5 nM of ^125 I-SP and 20 μl of unlabeled substance P or any other test compound. The tubes were incubated at 4° C. or at room temperature for 1 hour with gentle shaking. The bound radioactivity was separated from unbound radioactivity by GF/C filter (Brandel, Gaithersburg, Md.) which was pre-wetted with 0.1 polyethylenimine. The filter was washed with 3 ml of wash buffer (50 Tris pH 7.5, 5 mM MnCl21 150 mM NaCl) three times and its radioactivity was determined by gamma counter.
A variety of compounds were tested according to the COS cell procedure. The concentration of compound required to inhibit the binding of substance P to the human neurokinin-1 receptor by 50% was measured.

Dopamine Receptor = test: Radioligand displacement from brain cells, dopamine receptor; type: binding; settings: 3H-spiperone (0.1 nM)
Muscarinic cholingeric = type: binding; settings: 3H-QNB (0.1 nM)
β-adrenergicreceptor = settings: AtT-20 cells; cited from earlier work
Opiate Receptor = test: Radioligand displacement from brain cells, opiate receptor; type: binding; settings: 3H-naloxone (0.5 nM)
β-adrenergic receptor = test: Radioligand displacement from AtT-20 and brain cells, β-adrenergic receptor; type: binding; settings: 125I-CYP (0.1 nM)

T1 sequence (P25103 whole entry): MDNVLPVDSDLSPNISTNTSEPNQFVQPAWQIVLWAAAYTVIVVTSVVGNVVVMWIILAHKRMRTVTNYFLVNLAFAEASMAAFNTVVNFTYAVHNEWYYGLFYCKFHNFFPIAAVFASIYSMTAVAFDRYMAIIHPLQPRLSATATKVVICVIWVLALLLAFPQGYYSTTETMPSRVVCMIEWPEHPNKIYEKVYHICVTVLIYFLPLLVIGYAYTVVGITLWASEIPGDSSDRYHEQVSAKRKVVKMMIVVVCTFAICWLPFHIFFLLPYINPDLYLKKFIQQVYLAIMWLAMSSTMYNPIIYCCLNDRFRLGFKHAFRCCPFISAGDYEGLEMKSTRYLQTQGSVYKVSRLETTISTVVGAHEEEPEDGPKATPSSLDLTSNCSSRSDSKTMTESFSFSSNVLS

2-(1H-indol-3-yl)ethyl-6-O-(5-aminopentyl)-2,4-di-O-deoxy-β-D-glucopyranoside [Compound 2]
IC50 [1]: ~1000 nM | IC50 (SRIF receptor): 1300 nM | IC50 [2]: 180 nM

NCCCCCOC[C@H]1O[C@@H](OCCc2c[nH]c3ccccc23)[C@H](OCc2ccccc2)[C@@H](OCc2ccccc2)[C@@H]1OCc1ccccc1 [Compound 1, 2-(1H-Indol-3yl)ethyl-6-O-(5-aminopentyl)-2,3,4-tri-O-benzyl-β-D-glucopyranoside]
IC50 [1]: ~9500 nM | IC50 (SRIF receptor): 9500 nM | Binding Inhibition (Dopamine Receptor): 82% | Binding Inhibition (Muscarinic cholingeric; AtT-20): 20% | Binding Inhibition (Muscarinic cholingeric; Brain): 83% | concentration required for β-adrenergic receptor binding relative to somatostatin receptor (β-adrenergicreceptor): five fold higher concentration | IC50 [2]: 120 nM | Binding Inhibition (Opiate Receptor): 55% | Binding Inhibition (β-adrenergic receptor; AtT-20): ~70% | Binding Inhibition (β-adrenergic receptor; Brain): 45%

C[C@H](N)C(=O)NCC(=O)N[C@H]1CSSC[C@@H](C(=O)O)NC(=O)[C@H](CO)NC(=O)[C@H]([C@@H](C)O)NC(=O)[C@H](Cc2ccccc2)NC(=O)[C@H]([C@@H](C)O)NC(=O)[C@H](CCCCN)NC(=O)[C@H](Cc2c[nH]c3ccccc23)NC(=O)[C@H](Cc2ccccc2)NC(=O)[C@H](Cc2ccccc2)NC(=O)[C@H](CC(N)=O)NC(=O)[C@H](CCCCN)NC1=O [SRIF, somatostatin, reference compound]
IC50 ([1]; also printed as 9.3×10^-9 M): ~9.3 nM | IC50 (SRIF receptor): 9.3 nM
